Measurements reported in article PMC10893053 (Pharmaceutics, 2024).
Converted amounts (≈) assume the structure as drawn. “And” between values parts separate entries of the source, which are not always exact repeats. Equal values may be shown once. Read-outs that look alike come from different tables or passages of the source.

Assays:
[1] = Cyclodextrin (SBE-β-CD)/buffer apparent partition coefficient of CBZ; type: physicochemical; settings: buffer pH 6.8, 37 °C
Protocol: (§1) Additionally, for the sake of the reliable comparison of the partition within the micellar and cyclodextrin systems, the concentrations of the excipient (F127 or SBE-β-CD) on the X-axis were expressed in kg∙L^−1. From the results of the partition coefficients determinations, the thermodynamics of solubilization by F127 and SBE-β-CD was disclosed by the excess free Gibbs energy ( ΔGS37°C ) evaluation, using the equation:(12) ΔGS37°C=−RT·lnKexcipient/buf
(§2) In the case of cyclodextrins, the nonspecific interaction between the solute and the cavity of cyclodextrin takes place, and the solubilization process may be attributed to the partition of solutes from the aqueous buffer into the cyclodextrin cavity. In this work, the partition from the micellar pseudo phase (F127) to the aqueous buffer pH 6.8, as well as from SBE-β-CD to the buffer was studied using the plots of the linear dependences (Figure S4), plotted according to Equations (10) and (11). The calculations were conducted in two variants.

[2] = Equilibrium solubility of CBZ, shake-flask method, HPLC; type: physicochemical; settings: phosphate buffer, aqueous buffer, thermodynamic from solid; pure buffer pH 6.8; 37.0±0.1 °C
Protocol: The experimental temperature of 37 °C corresponded to the standard temperature of a healthy human. […] The vials were continuously shaken in an air thermostat to achieve the equilibrium. After this, the suspensions were settled during no less than 6 h to avoid supersaturation [33]. […] The experimental results are presented as an average of at least three replicated experiments.
The samples of the solutions were analyzed via HPLC using the Shimadzu Prominence model LC-20 AD, equipped with a PDA detector and a C-18 column Luna® (150 mm × 4.6 mm i.d., 5 μm particle size, and 100 Å pore size) (Albert-Hahn-Str. 6-10, Duisburg, Germany). The column temperature was 40 °C. Eluent acetonitrile:water at a ratio of 40:60 v/v was used. An isocratic regime at a flow rate of 1 mL·min^−1 was applied. The injection volume was 20 μL.

[3] = design: method as in PMID 21415539; settings: water to 1-octanol; pH 7.4 of the aqueous phase; cited from earlier work
[4] = In vitro permeability, Franz diffusion cell, polydimethylsiloxane–polycarbonate membrane; type: in vitro ADME; settings: 37 °C; for C0free (free CBZ concentration in the donor solution, C0free=C0·ffree): PDS membrane experiment; for Papp at 5 h: pH 6.8, PDS membrane
Protocol: (§3) The apparent permeability coefficients were measured at 37 °C with the help of a vertical-type Franz diffusion cell (PermeGear, Inc., Hellertown, PA, USA). The experimental setup was the same as it was described in our previous study, where the excess amount of the investigated substance was placed in glass cups with ground-in lids. The required volume of buffer pH 6.8 without and with a predetermined concentration of the excipient (F127 or SBE-β-CD in the present study) was added, and the suspension was mixed overnight and filtered to obtain a clear solution. The concentration of this solution was determined and used for the further calculation of the permeability coefficient. […] The membrane was mounted between the donor and receptor chambers of the Franz cell. The effective surface area of the membrane was 0.785 cm^2. Each experiment lasted 5 h. The donor solution was permanently mixing with a magnetic stirrer at a constant rate. The aliquots of the receptor solution (0.5 mL) were withdrawn every 30 min and promptly replaced with the same volume of the fresh buffer.
(§4) The apparent permeability coefficients were taken as the average values of no less than three replicas. […]
(§5) The authors underlined that when different excipients, such as cyclodextrins or micelle-forming polymers, are used, it is necessary to obtain “true” permeability values by a correction of permeability coefficients for the free drug concentration. In this study, the free drug concentration in the presence of F127 and SBE-β-CD was assessed indirectly through the equilibrium solubility experiments at all the excipient concentrations (Table 2).

[5] = In vitro permeability, Franz diffusion cell, regenerated cellulose membrane; type: in vitro ADME; settings: 37 °C; for C0free (free CBZ concentration in the donor solution, C0free=C0·ffree): RC membrane experiment; for Papp at 5 h: pH 6.8, RC membrane
Protocol: as §3, §4, §5

[6] = cited from earlier work
[7] = Stability constant of CBZ/SBE-β-CD complex (Kc) from phase solubility diagram; type: physicochemical; settings: buffer pH 6.8, 37 °C
[8] = Micelle (F127)/buffer apparent partition coefficient of CBZ; type: physicochemical; settings: buffer pH 6.8, 37 °C
Protocol: as §1, §2

[9] = CBZ/F127 association constant (Ka) from phase solubility diagram; type: physicochemical; settings: buffer pH 6.8, 37 °C
Excerpt: To this end, in order to assess the concentration of F127 in the micellar form, the difference between the total F127 (CF127) concentration and the CMC was used.
The CMC value of F127 (Section 3.1) was used to calculate F127 micellar concentrations as the differences between the total CF127 and the CMC.

[10] = logP, partition of CBZ from water to 1-octanol; type: physicochemical; settings: 1-octanol/water, pH 7.4; after conversion from the molar units to the mass units
[11] = design: method as in PMID 19403275; settings: 1.33 mmol·L^−1 (1%) F127 solution; 37 °C; cited from earlier work
[12] = Viscosity of F127 and SBE-β-CD solutions, Vibro Viscometer; type: physicochemical; settings: 37 °C
Protocol: The viscosity of F127 and SBE-β-CD solutions at concentrations used for the permeability experiments (1.0 w/v%, 2.0 w/v%, and 3.0 w/v%) was measured with the help of SV series Vibro Viscometer (A&D Company Ltd., Tokyo, Japan) with a high accuracy of 1% (standard deviation).
In turn, with SBE-β-CD in the donor solution, the Pappcalc values are somewhat lower with RC and higher with PDS membranes than the experimental Papp values. These findings allow the proposal of additional mechanisms that influence permeability, going beyond the model approach which primarily relied on solubility for quantitatively predicting permeability. The underestimation of the permeability through the PDS membrane with SBE-β-CD can probably be attributed to the specific interaction of anionic cyclodextrin with PDS, as it was underlined above. In addition, as it was reported in [57], decreased diffusivity can be attributed to the increased viscosity of the donor solution upon the acceleration of the excipient concentration. […] Fischer et al. proposed that just a change in the viscosity of the aqueous donor compartment might be the reason of the decreased permeability of carboxyfluorescein in the non-ionic surfactant poloxamer 188. To support the obtained results, the dynamic viscosity […] of the dissolution medium was measured at the experimental temperature of 37 °C and listed in Table S4. As expected, the viscosity was increased both with F127 and SBE-β-CD in solution.

[13] = excipient concentration expressed in kg∙L^−1
[14] = excipient concentration expressed in molarity
[15] = F127 1.33 mmol·L^−1, buffer pH 6.8, read-out: Papp (apparent permeability coefficient)
[16] = F127 1.83 mmol·L^−1, buffer pH 6.8, read-out: Papp (apparent permeability coefficient)
[17] = F127 2.30 mmol·L^−1, buffer pH 6.8, read-out: Papp (apparent permeability coefficient)
[18] = SBE-β-CD 6.89 mmol·L^−1, buffer pH 6.8, read-out: Papp (apparent permeability coefficient)
[19] = SBE-β-CD 13.78 mmol·L^−1, buffer pH 6.8, read-out: Papp (apparent permeability coefficient)
[20] = SBE-β-CD 20.67 mmol·L^−1, buffer pH 6.8, read-out: Papp (apparent permeability coefficient)
[21] = pure buffer pH 6.8 (0 mmol·L^−1 excipient), read-out: Pabs (absolute permeability coefficient, Pabs=J/C0free)
[22] = pure buffer pH 6.8 (0 mmol·L^−1 excipient), read-out: Papp (apparent permeability coefficient)
[23] = expressed per mass of excipient

Compound: NC(=O)N1c2ccccc2C=Cc2ccccc21 [CBZ, carbamazepine]
- Partition coefficient KSBE-β-CD/buf [1, 13]: 205.11 (±0.51)
- Partition coefficient KSBE-β-CD/buf [1, 14]: 297.67 (±0.75)
- solubility thermodynamic [2]: 830 µM (≈ 196 µg/mL)
- P (partition coefficient water/1-octanol) [3]: 380.19
- C0free (free CBZ concentration in the donor solution, C0free=C0·ffree) ([4]; F127 1.33 mmol·L^−1): 464 µM
- C0free (free CBZ concentration in the donor solution, C0free=C0·ffree) ([4]; F127 1.83 mmol·L^−1): 378 µM
- C0free (free CBZ concentration in the donor solution, C0free=C0·ffree) ([4]; F127 2.30 mmol·L^−1): 312 µM
- C0free (free CBZ concentration in the donor solution, C0free=C0·ffree) ([4]; SBE-β-CD 6.89 mmol·L^−1): 440 µM
- C0free (free CBZ concentration in the donor solution, C0free=C0·ffree) ([4]; SBE-β-CD 13.78 mmol·L^−1): 514 µM
- C0free (free CBZ concentration in the donor solution, C0free=C0·ffree) ([4]; SBE-β-CD 20.67 mmol·L^−1): 500 µM
- Papp at 5 h [4, 15]: 0.286 ×10⁻⁶ cm/s
- Papp at 5 h [4, 16]: 0.253 ×10⁻⁶ cm/s
- Papp at 5 h [4, 17]: 0.214 ×10⁻⁶ cm/s
- Papp at 5 h [4, 18]: 0.127 ×10⁻⁶ cm/s
- Papp at 5 h [4, 19]: 0.0796 ×10⁻⁶ cm/s
- Papp at 5 h [4, 20]: 0.0565 ×10⁻⁶ cm/s
- Papp at 5 h [4, 21]: 0.567 ×10⁻⁶ cm/s
- Papp at 5 h [4, 22]: 0.567 ×10⁻⁶ cm/s
- C0free (free CBZ concentration in the donor solution, C0free=C0·ffree) ([5]; F127 1.33 mmol·L^−1): 473 µM
- C0free (free CBZ concentration in the donor solution, C0free=C0·ffree) ([5]; F127 1.83 mmol·L^−1): 377 µM
- C0free (free CBZ concentration in the donor solution, C0free=C0·ffree) ([5]; F127 2.30 mmol·L^−1): 473 µM
- C0free (free CBZ concentration in the donor solution, C0free=C0·ffree) ([5]; SBE-β-CD 6.89 mmol·L^−1): 446 µM
- C0free (free CBZ concentration in the donor solution, C0free=C0·ffree) ([5]; SBE-β-CD 13.78 mmol·L^−1): 388 µM
- C0free (free CBZ concentration in the donor solution, C0free=C0·ffree) ([5]; SBE-β-CD 20.67 mmol·L^−1): 559 µM
- Papp at 5 h [5, 15]: 32.2 ×10⁻⁶ cm/s
- Papp at 5 h [5, 16]: 26.6 ×10⁻⁶ cm/s
- Papp at 5 h [5, 17]: 20.3 ×10⁻⁶ cm/s
- Papp at 5 h [5, 18]: 20.5 ×10⁻⁶ cm/s
- Papp at 5 h [5, 19]: 13.4 ×10⁻⁶ cm/s
- Papp at 5 h [5, 20]: 12.4 ×10⁻⁶ cm/s
- Papp at 5 h [5, 21]: 55.5 ×10⁻⁶ cm/s
- Papp at 5 h [5, 22]: 55.5 ×10⁻⁶ cm/s
- Stability constant of CBZ with SBE-β-CD ([6]; unbuffered double distilled water, 30 °C, ref 48 Jain et al.): 498.04 M⁻¹
- Stability constant of CBZ with SBE-β-CD ([6]; undefined pH and temperature, ref 49 Smith et al.): 1035 M⁻¹
- Apparent stability constant of CBZ/SBE-β-CD complex (Kc) [7]: 395.9 (±15.8) M^−1 and 395.9 M^−1
- Apparent stability constant of CBZ/SBE-β-CD complex (Kc) [7, 23]: 247.5 (±5.23) L∙kg^−1
- Partition coefficient KF127/buf [8, 13]: 58.54 (±0.86)
- Partition coefficient KF127/buf [8, 14]: 737.63 (±10.90)
- CBZ/F127 micellar association constant (Ka) [9]: 2374.2 (±118.7) M^−1
- CBZ/F127 micellar association constant (Ka) [9, 23]: 65.5 (±3.27) L∙kg^−1
- logP [10]: 3.47
- Solubility of CBZ [11]: 1430 µM

Compound: sulfobutylether-β-cyclodextrin [SBE-β-CD]
- Viscosity ([12]; SBE-β-CD 6.89 mmol·L-1 donor solution): 0.72 mPa·s
- Viscosity ([12]; SBE-β-CD 13.78 mmol·L-1 donor solution): 0.75 mPa·s
- Viscosity ([12]; SBE-β-CD 20.67 mmol·L-1 donor solution): 0.8 mPa·s
